Measured values reported in US4191738A, “Immunoassay for N-desmethyldiazepam” (Hoffmann-La Roche Inc., priority 1978, dated 1980).
Where “and” joins values, the source holds several entries; their conditions need not be identical. Equal entries are not always repeated.

How the values were obtained:
[1] = tested on: antiserum to N-desmethyldiazepam; test: RIA cross-reactivity with the antiserum to N-desmethyldiazepam; type: binding, New Zealand white rabbit; conditions: for % Cross-reaction: determined at 50% inhibition of antibody-bound ^3 H-N-desmethyldiazepam; for interference (cross-reactivity in words): RIA antiserum to N-desmethyldiazepam
Method: (§1) Two New Zealand white rabbits were immunized by intradermal injection of the immunogen as an emulsion in Freund's complete adjuvant (1 mg/ml) using the protocol of Dixon et al. supra. The animals were then boosted at monthly intervals by intravenous and subcutaneous injection of 100 μg of the immunogen as a solution in isotonic saline via both routes. Serum was harvested at 10 to 14 days following each booster and stored at -20° C.
The assay was carried out in 12×75 mm glass tubes using 0.01 M Tris buffer (pH 7.5) containing 0.9% NaCl and 0.1% sodium azide. A calibration curve was generated by addition of ^3 H-N-desmethyldiazepam (15,000 cpm) in 0.5 ml of buffer to tubes containing 0.5 to 20 ng of unlabelled N-desmethyldiazepam in 50 μl of control plasma or blood followed by 0.4 ml of suitably diluted antiserum. Appropriate controls were included to determine nonspecific (i.e. absence of antiserum) and specific binding of the tracer. Following incubation at room temperature for 0.5 to 1 hr, an equal volume (1 ml) of saturated ammonium sulfate (adjusted to pH 7.5 with 5 N NaOH) was added to precipitate antibody-bound radioligand. The mixture was vortexed and after standing for 10 min at 4° C. in a refrigerated centrifuge, the tubes were centrifuged at 2500×g for 20 min. The supernate was removed by aspiration and the precipitate, containing the antibody-bound radioligand, dissolved in 0.4 ml of water. (When whole blood samples were assayed, the precipitate was washed twice with 1 ml of 50% saturated ammonium sulfate prior to its dissolution in water. This procedure removed virtually all of the heme proteins which might otherwise interfere with the subsequent liquid scintillation counting procedure.) After the addition of 3 ml of Aquasol (New England Nuclear, Boston, Mass. 02118) each tube was vortexed immediately to give a clear solution, capped with a Caplug (size 5X, Protective Closures Co., Inc., Buffalo, N.Y. 14207) and the tube counted directly as described by Dixon and Cohen, Clin. Chem, 22, 1746 (1976) in a modified liquid scintillation counter (Packard Tri-Carb, Model 3255, Packard Instrument Co., Ill. 60515). The counting efficiency for tritium under these conditions was 32%.
All samples were assayed in duplicate and the data calculated as outlined by Robard, Clin. Chem. 20, 1255 (1970) using a digital computer for iterative weighted linear regression analysis of logit B/Bo versus log dose where B and Bo are the amounts of antibody-bound radioligand in the presence and absence of unlabelled drug, respectively. Both B and Bo were corrected for nonspecific binding.
The specificity of the RIA was established by determination of the extent of cross-reactivity of a number of potential competitors with the antiserum and by comparison of the RIA method with the EC-GC procedure of de Silva et al., Anal. Chem. 48, 10 (1976).
*Determined at 50% inhibition of antibodybound ^3

[2] = tested on: antiserum to N-desmethyldiazepam; test: RIA calibration, binding of ^3 H-N-desmethyldiazepam to antiserum, sensitivity and precision; design: species or system New Zealand white rabbit
Method: as §1
The assay was carried out in 12×75 mm glass tubes using 0.01 M Tris buffer (pH 7.5) containing 0.9% NaCl and 0.1% sodium azide. […] (When whole blood samples were assayed, the precipitate was washed twice with 1 ml of 50% saturated ammonium sulfate prior to its dissolution in water. This procedure removed virtually all of the heme proteins which might otherwise interfere with the subsequent liquid scintillation counting procedure.) After the addition of 3 ml of Aquasol (New England Nuclear, Boston, Mass. 02118) each tube was vortexed immediately to give a clear solution, capped with a Caplug (size 5X, Protective Closures Co., Inc., Buffalo, N.Y. 14207) and the tube counted directly as described by Dixon and Cohen, Clin. Chem, 22, 1746 (1976) in a modified liquid scintillation counter (Packard Tri-Carb, Model 3255, Packard Instrument Co., Ill. […]

[3] = tested on: antibodies elicited by N-desmethyldiazepam-bovine gamma globulin conjugate; conditions: 3'-carboxypropyl linked conjugate, U.S. Pat. No. 4,046,636 Example 8; cited from earlier work
[4] = cited from earlier work

Compound | % Cross-reaction [1] | cross-reaction with prior-art antibodies [3] | further results
O=C(O)C1N=C(c2ccccc2)c2cc(Cl)ccc2NC1=O (stereo not shown) [Clorazepate] | > 50% |  | % Cross-reaction ([1]; listed as clorazepate): greater than 50%
Nc1ccc2c(c1)C(c1ccccc1Cl)=NCC(=O)N2 [7-Aminoclonazepam] | 0.07% |  | 
O=C1CN=C(c2ccccc2)c2cc(Cl)ccc2N1 [N-desmethyldiazepam] | 100% | cross-react strongly | inhibition of binding of the radioligand to the antiserum ([2]; 0.5 ng standard, plasma): greater than 10%
^3 H-N-desmethyldiazepam |  |  | added radioligand bound by antiserum ([2]; 0.5 μl of antiserum, after second booster immunization): approximately 50%
O=C1C[N+]([O-])=C(c2ccccc2)c2cc(Cl)ccc2N1 [Demoxepam] | 0.6% |  | % Cross-reaction ([1]; listed as demoxepam): less than 1%
CN(C)CCC=C1c2ccccc2CCc2ccccc21 [Amitriptyline] | < 0.01% |  | interference (cross-reactivity in words) [1]: negligible interference; % Cross-reaction ([1]; listed as amitriptyline): less than 1%
O=C1CN=C(c2ccccc2Cl)c2cc([N+](=O)[O-])ccc2N1 [Clonazepam] | 0.3% |  | interference (cross-reactivity in words) [1]: negligible interference; % Cross-reaction ([1]; listed as clonazepam): less than 1%
CNCCC=C1c2ccccc2CCc2ccccc21 [Nortriptyline] | < 0.01% |  | 
O=C1Nc2ccc(Cl)cc2C(c2ccccc2)=NC1O (stereo not shown) [Oxazepam] | 5.5% | cross-react strongly | presence in plasma as metabolite of diazepam and clorazepate [4]: negligible quantities
CNC1=Nc2ccc(Cl)cc2C(c2ccccc2)=[N+]([O-])C1 [Chlordiazepoxide] | 0.2% | cross-react strongly | % Cross-reaction ([1]; listed as chlordiazepoxide): less than 1%
CN1C(=O)CN=C(c2ccccc2)c2cc(Cl)ccc21 [Diazepam] | 0.6% and 0.5% | cross-react strongly | % Cross-reaction ([1]; listed as diazepam): less than 1%
